One test addresses SmMLCK (Homo sapiens, UniProt Q15746). The experiment in a line: Kinase profiling. The class given is biochemical.
A further test concerns the target p38 beta MAPK (Homo sapiens, UniProt Q15759). The experiment in a line: Kinase profiling. The class given is biochemical.
The target in a further test is MNK2 (Homo sapiens, UniProt Q9HBH9). The experiment in a line: Kinase profiling. The class given is biochemical.
In the next test the target is T1, DDR2 (Homo sapiens, UniProt Q16832).
T1 sequence (Q16832 22-855): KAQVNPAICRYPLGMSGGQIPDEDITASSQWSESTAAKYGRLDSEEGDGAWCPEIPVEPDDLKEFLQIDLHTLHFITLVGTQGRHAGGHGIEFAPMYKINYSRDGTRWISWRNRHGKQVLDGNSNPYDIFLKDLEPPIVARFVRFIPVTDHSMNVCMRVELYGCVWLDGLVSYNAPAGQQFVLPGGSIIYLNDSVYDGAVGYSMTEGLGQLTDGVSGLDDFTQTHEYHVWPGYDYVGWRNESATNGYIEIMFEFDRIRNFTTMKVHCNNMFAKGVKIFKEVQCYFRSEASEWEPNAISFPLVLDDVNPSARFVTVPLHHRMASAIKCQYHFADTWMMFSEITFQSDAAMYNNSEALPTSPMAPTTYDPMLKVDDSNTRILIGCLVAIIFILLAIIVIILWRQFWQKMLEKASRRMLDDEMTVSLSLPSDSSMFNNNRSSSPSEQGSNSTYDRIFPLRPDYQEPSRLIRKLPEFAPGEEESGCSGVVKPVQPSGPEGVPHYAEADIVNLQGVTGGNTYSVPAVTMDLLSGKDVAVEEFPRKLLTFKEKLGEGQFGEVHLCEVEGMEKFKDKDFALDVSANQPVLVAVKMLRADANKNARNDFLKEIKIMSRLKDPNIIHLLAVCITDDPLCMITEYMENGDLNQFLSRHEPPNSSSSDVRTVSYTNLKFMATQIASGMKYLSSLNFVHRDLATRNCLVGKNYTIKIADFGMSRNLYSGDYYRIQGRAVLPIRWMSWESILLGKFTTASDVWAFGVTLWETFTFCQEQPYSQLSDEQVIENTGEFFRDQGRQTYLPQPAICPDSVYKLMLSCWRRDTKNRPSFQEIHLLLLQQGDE
The experiment in a line: Kinase profiling. It counts as biochemical.

The test system of test [1] is Bone-marrow-derived macrophages. The experiment in a line: IL-10 mRNA (qPCR) in LPS-stimulated macrophages. It counts as cell-based. To be noted: Mus musculus, Macrophage, read-out: EC50 for elevation of IL-10 mRNA. The method, then: Primary macrophages were generated by differentiating bone marrow from 6- to 12-week-old C57BL/6 mice for 7 days in Dulbecco's modified Eagle's medium (DMEM) supplemented with 5 ng/ml recombinant M-CSF (R&D systems), 2 mM glutamine, 10% FBS, penicillin and streptomycin. Bone-marrow-derived macrophages were differentiated on non-tissue-culture-treated plastic, harvested and replated at a density of 100000 cells/cm^2 per 0.1 ml on tissue culture-treated plastic in fresh medium before stimulation on day 8. RAW264.7 cells were cultured in DMEM containing 10% FBS, 2 mM glutamine and penicillin and streptomycin. […] Cells were treated for 1 h with or without inhibitors and then stimulated for up to 24 h with either 1 μg/ml Pam3CSK4 or 100 ng/ml LPS.
mRNA was extracted from cells using the MicroElute Total RNA kit following the manufacturers’ instructions (Omega Bio-Tek). cDNA was generated from 0.5 μg of total RNA using the iScript cDNA synthesis kit and quantified by quantitative real-time PCR (qPCR) using the SsoFast EvaGreen Supermix on a CFX384 real-time system (Bio-Rad Laboratories). The relative expression of each gene was calculated from CT values using the Pfaffl method and was normalized against the mRNA levels of housekeeping genes including 18S RNA and GAPDH.

The target in another test is IRR (Homo sapiens, UniProt P14616). The experiment in a line: Kinase profiling. It counts as biochemical.
IRR, sequence (P14616 27-1297): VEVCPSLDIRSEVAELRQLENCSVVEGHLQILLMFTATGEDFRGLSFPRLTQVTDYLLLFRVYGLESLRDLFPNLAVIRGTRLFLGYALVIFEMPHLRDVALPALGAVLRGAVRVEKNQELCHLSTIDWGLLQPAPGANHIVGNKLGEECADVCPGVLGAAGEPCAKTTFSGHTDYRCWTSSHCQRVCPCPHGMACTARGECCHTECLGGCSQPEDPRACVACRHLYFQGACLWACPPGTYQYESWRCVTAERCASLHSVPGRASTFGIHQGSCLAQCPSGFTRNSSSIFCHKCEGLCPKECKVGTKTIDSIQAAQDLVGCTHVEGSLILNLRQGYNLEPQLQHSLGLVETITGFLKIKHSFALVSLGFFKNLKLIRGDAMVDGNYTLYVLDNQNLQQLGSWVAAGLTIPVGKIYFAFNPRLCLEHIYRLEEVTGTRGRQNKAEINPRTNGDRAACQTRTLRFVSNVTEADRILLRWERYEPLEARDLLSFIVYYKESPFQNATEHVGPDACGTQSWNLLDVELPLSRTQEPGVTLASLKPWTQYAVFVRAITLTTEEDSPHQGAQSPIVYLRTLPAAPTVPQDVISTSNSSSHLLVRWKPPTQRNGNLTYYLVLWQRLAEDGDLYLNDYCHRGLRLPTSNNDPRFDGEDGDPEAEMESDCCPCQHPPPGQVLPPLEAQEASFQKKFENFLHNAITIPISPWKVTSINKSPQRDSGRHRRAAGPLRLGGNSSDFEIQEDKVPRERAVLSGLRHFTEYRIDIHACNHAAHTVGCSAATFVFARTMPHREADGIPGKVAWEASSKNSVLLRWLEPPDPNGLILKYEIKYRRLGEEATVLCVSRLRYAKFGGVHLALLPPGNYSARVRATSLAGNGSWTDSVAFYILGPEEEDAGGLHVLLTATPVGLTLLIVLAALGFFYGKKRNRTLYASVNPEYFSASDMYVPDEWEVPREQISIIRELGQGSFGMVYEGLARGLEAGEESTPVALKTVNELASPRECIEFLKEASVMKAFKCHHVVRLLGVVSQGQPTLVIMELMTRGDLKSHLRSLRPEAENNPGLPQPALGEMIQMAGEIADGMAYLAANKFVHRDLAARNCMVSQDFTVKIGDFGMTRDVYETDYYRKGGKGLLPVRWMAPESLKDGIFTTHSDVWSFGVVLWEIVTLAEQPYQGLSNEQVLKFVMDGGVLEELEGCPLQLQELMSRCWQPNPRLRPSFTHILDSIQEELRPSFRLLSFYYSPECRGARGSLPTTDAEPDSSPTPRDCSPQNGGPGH
The target in another test is IRAK1 (Homo sapiens, UniProt P51617). The experiment in a line: Kinase profiling. The class given is biochemical.
IRAK1, sequence (P51617 whole entry): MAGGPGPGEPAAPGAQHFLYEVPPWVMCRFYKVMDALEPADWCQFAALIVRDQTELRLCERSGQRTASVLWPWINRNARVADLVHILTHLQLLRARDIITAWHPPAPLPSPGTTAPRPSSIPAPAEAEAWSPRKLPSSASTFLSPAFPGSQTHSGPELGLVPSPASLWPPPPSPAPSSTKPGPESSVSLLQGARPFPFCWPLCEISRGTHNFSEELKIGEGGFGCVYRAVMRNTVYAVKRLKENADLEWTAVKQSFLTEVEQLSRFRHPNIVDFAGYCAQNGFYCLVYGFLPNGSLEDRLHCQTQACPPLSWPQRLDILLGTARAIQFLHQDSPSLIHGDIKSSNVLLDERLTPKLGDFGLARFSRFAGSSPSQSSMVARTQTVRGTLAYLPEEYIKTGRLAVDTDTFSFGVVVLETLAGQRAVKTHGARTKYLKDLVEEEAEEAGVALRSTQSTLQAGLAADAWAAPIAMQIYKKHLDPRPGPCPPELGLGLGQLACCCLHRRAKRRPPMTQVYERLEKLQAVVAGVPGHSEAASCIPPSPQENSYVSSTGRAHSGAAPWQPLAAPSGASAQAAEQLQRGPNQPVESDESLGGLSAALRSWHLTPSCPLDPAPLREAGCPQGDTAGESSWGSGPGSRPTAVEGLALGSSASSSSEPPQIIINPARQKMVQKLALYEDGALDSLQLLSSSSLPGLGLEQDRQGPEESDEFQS
The target in another test is PAK6 (Homo sapiens, UniProt Q9NQU5). The experiment in a line: Kinase profiling. The class given is biochemical.
PAK6, sequence (Q9NQU5 whole entry): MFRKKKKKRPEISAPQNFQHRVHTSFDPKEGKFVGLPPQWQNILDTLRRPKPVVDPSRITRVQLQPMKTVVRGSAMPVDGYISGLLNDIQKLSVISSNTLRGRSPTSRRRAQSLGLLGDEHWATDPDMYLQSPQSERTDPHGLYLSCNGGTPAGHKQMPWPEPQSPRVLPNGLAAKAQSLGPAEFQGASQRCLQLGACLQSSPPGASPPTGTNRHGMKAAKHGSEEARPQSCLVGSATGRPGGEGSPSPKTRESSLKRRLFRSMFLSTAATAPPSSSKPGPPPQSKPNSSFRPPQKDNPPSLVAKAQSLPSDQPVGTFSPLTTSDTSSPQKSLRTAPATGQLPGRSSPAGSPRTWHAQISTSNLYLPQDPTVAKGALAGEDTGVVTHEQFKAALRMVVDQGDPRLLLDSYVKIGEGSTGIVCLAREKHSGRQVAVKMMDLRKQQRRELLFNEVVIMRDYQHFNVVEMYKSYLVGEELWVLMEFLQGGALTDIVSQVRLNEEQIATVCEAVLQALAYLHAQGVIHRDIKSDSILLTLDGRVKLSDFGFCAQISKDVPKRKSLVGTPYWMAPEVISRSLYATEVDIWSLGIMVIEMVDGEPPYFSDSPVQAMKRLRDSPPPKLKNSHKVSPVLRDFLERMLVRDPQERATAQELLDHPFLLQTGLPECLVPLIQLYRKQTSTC
In the next test the target is T2, p38 gamma MAPK (Homo sapiens, UniProt P53778).
T2 sequence (P53778 1-367): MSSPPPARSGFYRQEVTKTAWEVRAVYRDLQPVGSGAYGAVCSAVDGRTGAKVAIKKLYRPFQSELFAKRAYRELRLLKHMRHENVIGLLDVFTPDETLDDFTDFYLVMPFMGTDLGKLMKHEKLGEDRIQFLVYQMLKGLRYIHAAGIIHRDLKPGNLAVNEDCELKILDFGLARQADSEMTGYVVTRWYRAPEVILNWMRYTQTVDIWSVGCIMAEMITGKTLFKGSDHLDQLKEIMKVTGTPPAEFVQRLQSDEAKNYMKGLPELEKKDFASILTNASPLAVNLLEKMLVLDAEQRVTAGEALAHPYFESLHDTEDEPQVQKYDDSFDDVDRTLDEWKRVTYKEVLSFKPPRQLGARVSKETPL
The experiment in a line: Kinase profiling. It counts as biochemical.

Another test has as its target T3, PRAK (Homo sapiens, UniProt Q8IW41).
T3 sequence (Q8IW41 1-473): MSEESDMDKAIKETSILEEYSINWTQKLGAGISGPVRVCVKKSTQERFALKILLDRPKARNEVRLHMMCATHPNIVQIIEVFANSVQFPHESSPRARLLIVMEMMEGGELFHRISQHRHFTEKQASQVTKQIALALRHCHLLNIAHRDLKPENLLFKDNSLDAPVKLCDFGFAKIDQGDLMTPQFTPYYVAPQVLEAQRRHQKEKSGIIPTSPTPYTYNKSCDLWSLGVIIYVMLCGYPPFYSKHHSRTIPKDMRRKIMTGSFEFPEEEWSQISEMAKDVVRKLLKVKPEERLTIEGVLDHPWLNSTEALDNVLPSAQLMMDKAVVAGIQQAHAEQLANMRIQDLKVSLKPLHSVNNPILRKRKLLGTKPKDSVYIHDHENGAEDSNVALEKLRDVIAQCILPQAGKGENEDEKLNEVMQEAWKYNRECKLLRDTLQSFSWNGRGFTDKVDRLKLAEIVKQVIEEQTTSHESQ
The experiment in a line: Kinase profiling. The class given is biochemical.

Broadly, the remaining activity is the signal under treatment as a percentage of the control signal. The term EC50 denotes the concentration needed to bring the measured effect to its halfway point.

Where two headings read alike, the source gives them in different places.

SmMLCK, sequence (Q15746 923-1914): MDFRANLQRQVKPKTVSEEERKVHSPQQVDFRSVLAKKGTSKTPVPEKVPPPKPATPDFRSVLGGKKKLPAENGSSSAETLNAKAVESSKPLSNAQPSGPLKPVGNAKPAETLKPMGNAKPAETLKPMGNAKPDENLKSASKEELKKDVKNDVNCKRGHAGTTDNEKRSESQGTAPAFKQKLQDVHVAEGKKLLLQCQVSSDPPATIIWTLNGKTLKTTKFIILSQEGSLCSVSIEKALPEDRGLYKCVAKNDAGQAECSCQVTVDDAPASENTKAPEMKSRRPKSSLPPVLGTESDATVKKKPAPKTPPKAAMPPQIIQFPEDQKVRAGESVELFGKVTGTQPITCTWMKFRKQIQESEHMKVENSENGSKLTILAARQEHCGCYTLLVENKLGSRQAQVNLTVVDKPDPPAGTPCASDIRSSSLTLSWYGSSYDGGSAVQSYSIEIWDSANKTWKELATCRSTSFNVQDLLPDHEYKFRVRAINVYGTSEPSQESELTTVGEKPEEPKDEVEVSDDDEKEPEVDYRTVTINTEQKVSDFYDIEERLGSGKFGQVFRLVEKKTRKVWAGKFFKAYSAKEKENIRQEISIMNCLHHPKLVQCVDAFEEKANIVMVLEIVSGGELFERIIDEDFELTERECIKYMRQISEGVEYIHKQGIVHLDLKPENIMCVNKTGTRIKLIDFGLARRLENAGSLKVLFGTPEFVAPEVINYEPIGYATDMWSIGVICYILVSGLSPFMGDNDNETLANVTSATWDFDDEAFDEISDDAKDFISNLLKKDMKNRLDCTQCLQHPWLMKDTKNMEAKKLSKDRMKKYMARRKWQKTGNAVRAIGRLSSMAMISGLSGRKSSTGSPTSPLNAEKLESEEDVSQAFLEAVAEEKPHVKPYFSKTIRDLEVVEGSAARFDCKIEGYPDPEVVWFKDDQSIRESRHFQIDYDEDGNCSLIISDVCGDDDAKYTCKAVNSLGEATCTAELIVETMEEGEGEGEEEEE
MNK2, sequence (Q9HBH9 whole entry): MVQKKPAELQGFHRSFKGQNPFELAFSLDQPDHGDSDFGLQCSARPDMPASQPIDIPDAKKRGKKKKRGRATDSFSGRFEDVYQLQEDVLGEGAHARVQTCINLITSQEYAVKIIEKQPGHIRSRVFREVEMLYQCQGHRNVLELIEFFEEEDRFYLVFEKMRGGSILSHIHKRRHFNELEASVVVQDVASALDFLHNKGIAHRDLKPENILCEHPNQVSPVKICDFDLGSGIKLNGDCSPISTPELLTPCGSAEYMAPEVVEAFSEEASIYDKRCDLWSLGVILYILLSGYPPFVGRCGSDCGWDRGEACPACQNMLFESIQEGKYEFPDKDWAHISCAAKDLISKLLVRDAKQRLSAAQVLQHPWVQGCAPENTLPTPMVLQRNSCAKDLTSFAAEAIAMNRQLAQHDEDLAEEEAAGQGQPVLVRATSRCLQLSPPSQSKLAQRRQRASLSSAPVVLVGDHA
p38 beta MAPK, sequence (Q15759 whole entry): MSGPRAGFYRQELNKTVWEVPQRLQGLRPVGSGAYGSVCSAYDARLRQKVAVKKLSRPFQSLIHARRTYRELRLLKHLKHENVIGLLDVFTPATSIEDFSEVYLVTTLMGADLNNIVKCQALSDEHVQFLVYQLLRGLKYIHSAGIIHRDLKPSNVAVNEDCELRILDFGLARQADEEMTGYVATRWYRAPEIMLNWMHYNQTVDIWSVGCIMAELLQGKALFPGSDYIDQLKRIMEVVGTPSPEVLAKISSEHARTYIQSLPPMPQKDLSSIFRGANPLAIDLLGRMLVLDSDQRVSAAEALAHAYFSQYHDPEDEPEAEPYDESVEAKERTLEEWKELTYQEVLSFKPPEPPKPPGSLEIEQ

Regarding `COc1cc(Nc2c(C#N)cnc3cc(OCCCN4CCN(C)CC4)c(OC)cc23)c(Cl)cc1Cl` [Bosutinib, bosutinib], the remaining activity at 0.1 µM on SmMLCK is 88 ± 2%; at p38 beta MAPK, 94 ± 15%; on MNK2, 87 ± 6%; on DDR2 it was 22 ± 1%; on IRR, 72 ± 5%; at IRAK1 it was 77 ± 3%. For the same compound, the remaining activity at 0.1 µM on p38 gamma MAPK came to 88 ± 3%; at PRAK, 97 ± 2%. Moreover, the remaining activity at 1 µM worked out at 27 ± 1% at SmMLCK; 108 ± 24% at p38 beta MAPK; 100 ± 9% at MNK2; 2% at DDR2; 59 ± 1% on IRR; 65% on IRAK1. In addition, the remaining activity at 1 µM worked out at 132 ± 7% on PAK6 and 125 ± 1% at PRAK. The EC50 in test [1] (drug 1 h, then LPS 1 h, qPCR, n=4) stood at 320 nM.
Regarding `Cc1nc(Nc2ncc(C(=O)Nc3c(C)cccc3Cl)s2)cc(N2CCN(CCO)CC2)n1` [Dasatinib], the remaining activity at 0.1 µM worked out at 111 ± 4% on SmMLCK; 105 ± 11% at p38 beta MAPK; 97 ± 8% at MNK2; 1 ± 1% at DDR2; 89 ± 4% on IRR; 96 ± 1% at IRAK1. In addition, the remaining activity at 0.1 µM amounted to 126 ± 9% on PAK6 (0.1 µM), 100 ± 4% at p38 gamma MAPK and 129 ± 14% at PRAK. Also, the remaining activity at 1 µM on SmMLCK is 111 ± 7%; at p38 beta MAPK, 44 ± 4%; on MNK2, 106 ± 2%; on DDR2 it was 0%; on IRR, 90 ± 14%; on IRAK1, 108 ± 3%. Also, the figures for the remaining activity at 1 µM on PAK6, on p38 gamma MAPK (1 µM) and at PRAK were 120 ± 4%, 105 ± 7% and 128 ± 7%, respectively. The EC50 in test [1] (1 h) was found to be 100 nM.

These data come from publication PMC4286194 (Biochemical Journal, 2015).
